Values of other authors as cited in PMC11672368 (Therapeutic Advances in Medical Oncology, 2024).
One block for each substance: values may come before it.

Legend:
[1] = depot injection

elimination half-life (t1/2): 5 h
Substance: Triptorelin

Substance: degarelix
incidence of injection-site reactions [1]: ~40%

Substance: leuprolide acetate
achievement rate of serum total testosterone 0.2 ng/mL (serum testosterone): 57%
